Results from patent US20090137565A1, “Method for treatment of movement disorders” (The Trustees of Columbia University in the City of New York, priority 2004, published 2009).

Columns and labels:
[1] = system: medication-refractory hyperkinetic movements; assay: Twenty-patient trial: clinical course (onset, wear-off, continuation); type: in vivo, human; conditions: noted by most patients at higher doses
Source text: Twelve men and 8 women enrolled. Results from patients #6, and #s 1, 2, 7, 12, and 13 were reported previously. Frucht, S. J., et al. Mov Disord 20:745-51 (2005); Frucht, S. J., et al. Mov Disord 20:1330-7 (2005). Mean age/symptom duration was 43.9 yrs/12.3 yrs (myoclonus) and 71.2 yrs/26.7 yrs (ET). Patients with myoclonus were examined and videotaped at each visit using the Unified Myoclonus Rating Scale (UMRS), and patients with ET were examined and videotaped using the modified Washington Heights Inwood Genetic Essential Tremor Rating Scale (WHIGET; Appendix 1). Frucht, S. J., et al. Mov Disord 20:1330-7 (2005). After initial baseline examination and videotaping, patients took 1 gm of sodium oxybate by mouth (2 ml of the standard 0.5 gm/ml solution dissolved in 60 ml of water), and one hour later the videotaped examination was repeated. Patients were maintained on a dose of 1 gm T.I.D. (taken before meals) until their next office visit two weeks later, when the examination and videotaping were repeated one hour after receiving 1.5 gm of sodium oxybate. Subsequent visits and dose titrations at two-week intervals were repeated until the maximum dose was reached (3 gm T.I.D), patients were satisfied with the results of treatment, or until they developed side effects that they viewed as troublesome. […]

[2] = metabolized to carbon dioxide and water; cited from earlier work
[3] = Twenty-patient trial: side effects and tolerability; type: in vivo, human; conditions: twenty patients
Source text: Twelve men and 8 women enrolled. Results from patients #6, and #s 1, 2, 7, 12, and 13 were reported previously. Frucht, S. J., et al. Mov Disord 20:745-51 (2005); Frucht, S. J., et al. Mov Disord 20:1330-7 (2005). Mean age/symptom duration was 43.9 yrs/12.3 yrs (myoclonus) and 71.2 yrs/26.7 yrs (ET). Patients with myoclonus were examined and videotaped at each visit using the Unified Myoclonus Rating Scale (UMRS), and patients with ET were examined and videotaped using the modified Washington Heights Inwood Genetic Essential Tremor Rating Scale (WHIGET; Appendix 1). Frucht, S. J., et al. Mov Disord 20:1330-7 (2005). After initial baseline examination and videotaping, patients took 1 gm of sodium oxybate by mouth (2 ml of the standard 0.5 gm/ml solution dissolved in 60 ml of water), and one hour later the videotaped examination was repeated. Patients were maintained on a dose of 1 gm T.I.D. (taken before meals) until their next office visit two weeks later, when the examination and videotaping were repeated one hour after receiving 1.5 gm of sodium oxybate. Subsequent visits and dose titrations at two-week intervals were repeated until the maximum dose was reached (3 gm T.I.D), patients were satisfied with the results of treatment, or until they developed side effects that they viewed as troublesome. Dosing for patients #1, 2, 6, 7, 12, and 13 was slightly different (1 gm BID, with dose increments of 2 gm to maximum dose of 4 gm BID), but office visits and videotaping protocol were otherwise identical.

[4] = system: ethanol-responsive essential tremor; assay: Five-patient open-label trial of sodium oxybate, blinded WHIGET tremor rating (patients #4, 5); type: in vivo, human; conditions: for WHIGET TOTAL SUSTENTION score: range 0-6; for Rx effect, WHIGET TOTAL ACTION (improvement in tremor): listed as sodium oxybate, monosodium salt
Source text: Five patients were enrolled in a trial from the Movement Disorders Division of Columbia University Medical Center during the fall of 2004. All patients were afflicted with hyperkinetic movement disorders that responded to ethanol (defined as a noticeable change to the patient), and all were refractory to treatment with conventional medications or could not tolerate them. The Medical Center's Institutional Review Board approved the trial, and written and verbal informed consent were obtained from all patients prior to enrollment.
The dose and timing of all other drugs were kept constant throughout the trial, and patients were not withdrawn from other medications. Patients #1-3 were examined and videotaped using the Unified Myoclonus Rating Scale (UMRS), and patients #4 and 5 were examined and videotaped using the Washington Heights Inwood Tremor Rating Scale (WHIGET) (see Appendix I). Frucht S. J., et al. Adv Neurol 89:361-76 (2002); Louis, E. D., et al. Mov Disord 16:89-93 (2001).
Side effects were defined as either minor or serious (leading to hospitalization) using good clinical practice standards (www.who.int/medicines/library/par/ggcp/GCPGuidePharmatrials), and patients were asked to report side effects at each visit. After initial examination and videotaping, patients were given 1 gm of sodium oxybate by mouth (2 ml of the standard 0.5 gm/ml solution dissolved in 60 ml of water). One hour later, the senior author repeated the examination and videotaping. […] After two weeks taking 2 gm twice daily, the procedure was repeated after a 3 gm office dose, and finally two weeks after receiving 3 gm twice daily, the procedure was repeated after a 4 gm office dose. The maximum dose allowed in the trial was 4 gm twice daily. Patients and the senior author determined at each visit whether or not to proceed to the next dose level, based principally on their ability to tolerate the most recent dose regimen. After deciding on a maximum tolerated dose, patients received a dose in the office 0.5 gm less and the examination was videotaped.
The entire videotape segments and patient-writing samples from each visit were copied, and were blinded to trial order and identifying features, and were randomly ordered for review using a random number table. A movement disorder expert blinded to trial design and dose schedule, scored each videotape. Sub-scores for each visit were calculated as described previously. Frucht S. J., et al. Adv Neurol 89:361-76 (2002). We modified section 5 of the UMRS in which functional performance (pouring water, using a soup spoon) is performed only with the dominant arm (section V). […] This increased the maximum score of section 5 of the UMRS from 20 to 28.

[5] = Single-patient GHB trial: tolerability / adverse events; type: in vivo, human
Method: All office visits and the UMRS scale were performed by the supervisory physician. The patient came to the office for five visits, each separated by two weeks (time 0, 2 weeks, 4 weeks, 6 weeks and 8 weeks). At each visit, the physician examined the patient, and inquired about any adverse events. The physician performed the UMRS while the patient was videotaped. Xyrem® was dispensed by the physician at each visit.
At the initial visit the UMRS was performed and videotaped, 1 gm of GHB was administered by mouth, and they were monitored in the office for one hour. They then took 1 gm twice daily for two weeks, at which time they returned to the office. One hour after receiving 2 grams of GHB, the UMRS was performed and videotaped and for the next two weeks they took 2 grams twice daily. Two weeks later, the UMRS was performed and videotaped one hour after receiving 3 grams of GHB, and after two weeks of 3 grams twice daily, the same procedure was performed after receiving 4 grams in the office. After taking 4 grams twice daily for two weeks, they returned for UMRS videotaping, and the decision was made to continue the target dose of 4 gm twice daily.
The clinical trial was designed with a very slow titration schedule, in order to prevent possible side effects such as sedation, worsening of ataxia or orthostasis. Like most forms of myoclonus, posthypoxic myoclonus disappears during sleep and it is therefore necessary to administer the drug during waking hours in order to observe its effects.

O=C([O-])CCCO.[Na+] [GHB, 4-hydroxybutanoic acid monosodium salt]
wear-off of benefit [1]: four to five hours
active metabolites [2]: has no active metabolites
dose titration limited by ataxia [3]: 20%
dose titration limited by sedation [3]: 60%
mild, transient side effect: dizziness [3]: 35%
mild, transient side effect: emotionality [3]: 20%
mild, transient side effect: headache [3]: 20%
mild, transient side effect: nausea [3]: 10%
tolerability of daytime dosing [3]: acceptable
WHIGET TOTAL ACTION score ([4]; patient 4, 1 gm, range 0-40, 0 gm score 19.5): 10
WHIGET TOTAL SUSTENTION score ([4]; patient 4, 1.5 gm, 0 gm score 2.5): 0.5
WHIGET TOTAL ACTION score ([4]; patient 4, 1.5 gm, range 0-40, 0 gm score 19.5): 4
WHIGET TOTAL SUSTENTION score ([4]; patient 4, 2 gm, 0 gm score 2.5): 0
WHIGET TOTAL ACTION score ([4]; patient 4, 2 gm, range 0-40, 0 gm score 19.5): 5
Rx effect, WHIGET TOTAL ACTION (improvement in tremor) ([4]; patient 4): 79%
WHIGET TOTAL ACTION score ([4]; patient 5, 1 gm, 0 gm score 23): 19
WHIGET TOTAL ACTION score ([4]; patient 5, 1.5 gm, 0 gm score 23): 13.5
WHIGET TOTAL SUSTENTION score ([4]; patient 5, 1.5 gm, 0 gm score 4): 2.5
WHIGET TOTAL ACTION score ([4]; patient 5, 2 gm, 0 gm score 23): 12
WHIGET TOTAL SUSTENTION score ([4]; patient 5, 2 gm, 0 gm score 4): 3
Rx effect, WHIGET TOTAL ACTION (improvement in tremor) ([4]; patient 5): 48%
Blinded rating of the severity of torticollis ([4]; patient #4, 1 gm twice-daily dose, before: moderate): mild
kinetic tremor amplitude ([4]; patient #4, after 2 gm): markedly diminished
kinetic tremor amplitude ([4]; patient #5, after 2 gm): the amplitude has diminished
adverse effect reported by patient ([5]; after the first 1 gm dose): slight dizziness
tolerability ([5]; divided doses during the day): well tolerated
sedation ([5]; two daytime doses of 4 gm, concurrent clonazepam and levetiracetam): without significant sedation
